This is an account of results in PubChem BioAssay AID1259411 (Chemical Carcinogenesis Research Information System (CCRIS), 2018).

In this data set the test system is rodent carcinogenicity bioassays, tumor incidence. The data set is described as follows: CCRIS carcinogenicity studies. The gist of the method:
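Archive of carcinogenicity, mutagenicity, tumor promotion and tumor inhibition results drawn from journals, NCI reports and other sources, expert-reviewed; covers 1985-2011 and is no longer updated.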

Each structure is given as a SMILES string. Calls of active or inactive are those of the source. How the calls were made is not given here.

As to `Nc1ccc([N+](=O)[O-])cc1`, the carcinogen call is “inactive; negative” (Species: MOUSE, Strain/Sex: B6C3F1/FEMALE, Route: GAVAGE, Dose: 0, 3, 30, 100 MG/KG IN CORN OIL 5 D/WK FOR 103 WK (STUDY DURATION: 104 WK), Dose: 0, 3, 30, 100 MG/KG IN CORN OIL 5 D/WK FOR 103 WK (STUDY DURATION: 104 WK)); “equivocal” (Species: MOUSE, Strain/Sex: B6C3F1/MALE, Route: GAVAGE, Dose: 0, 3, 30, 100 MG/KG IN CORN OIL 5 D/WK FOR 103 WK (STUDY DURATION: 104 WK), Dose: 0, 3, 30, 100 MG/KG IN CORN OIL 5 D/WK FOR 103 WK (STUDY DURATION: 104 WK), Tumor Site: Type of Lesion: LIVER: HEMANGIOSARCOMA, ALL ORGANS: HEMANGIOMA OR HEMANGIOSARCOMA); “inactive; negative” (Species: RAT, Strain/Sex: STRAIN CD/MALE, FEMALE, Route: GAVAGE, Dose: 0, 0.25, 1.5, 9 MG/KG IN CORN OIL 1/D 7 D/WK FOR 24 MO (STUDY DURATION: 24 MO), Dose: 0, 0.25, 1.5, 9 MG/KG IN CORN OIL 1/D 7 D/WK FOR 24 MO (STUDY DURATION: 24 MO)).
Turning to `CON(C)C(=O)Nc1ccc(Cl)c(Cl)c1`, the carcinogen call (Species: Mouse, Strain/Sex: CD-1/Female (80/Group), Route: Oral, Dose: 0, 50, 150, 1500 ppm of 97% linuron in diet for 24 mo, study duration 24 mo, Dose: 0, 50, 150, 1500 ppm of 97% linuron in diet for 24 mo, study duration 24 mo, Tumor Site: Type of Lesion: Liver: hepatocellular adenomas (high dose only)) is “active; positive”; the carcinogen call (Species: Mouse, Strain/Sex: CD-1/Male (80/Group), Route: Oral, Dose: 0, 50, 150, 1500 ppm of 97% linuron in diet for 24 mo, study duration 24 mo, Dose: 0, 50, 150, 1500 ppm of 97% linuron in diet for 24 mo, study duration 24 mo) is “inactive; negative”; the carcinogen call (Species: Rat, Strain/Sex: Charles River CD/Female (70/Group), Route: Oral, Dose: 0, 50, 125, 625 ppm 97% linuron in diet for 24 mo, study duration 24 mo, Dose: 0, 50, 125, 625 ppm 97% linuron in diet for 24 mo, study duration 24 mo) is “inactive; negative”; the carcinogen call (Species: Rat, Strain/Sex: Charles River CD/Male (70/Group), Route: Oral, Dose: 0, 50, 125, 625 ppm 97% linuron in diet for 24 mo, study duration 24 mo, Dose: 0, 50, 125, 625 ppm 97% linuron in diet for 24 mo, study duration 24 mo, Tumor Site: Type of Lesion: Testes: Interstitial cell adenoma) is “active; positive”; the carcinogen call (Species: Rat, Strain/Sex: Crl:CD (SD)BR /Male (25/Group), Route: Oral, Dose: 0 (control diet), control diet for 18 mo followed by 625 ppm linuron for 6 mo, control diet for 1 yr followed by 625 ppm, Dose: 0 (control diet), control diet for 18 mo followed by 625 ppm linuron for 6 mo, control diet for 1 yr followed by 625 ppm, Tumor Site: Type of Lesion: Testes: interstitial cell tumors (0/25, 2/25 (6-mo. feed), 6/25 (12 mo feed))) was “active; positive”.
On to `C[C@](N)(Cc1ccc(O)c(O)c1)C(=O)O`, for which the carcinogen call is, setting by setting: (Species: MOUSE, Strain/Sex: B6C3F1/FEMALE, Route: ORAL, Dose: 0, 6300, 12500 PPM IN FEED FOR 103 WK (STUDY DURATION: 104 WK), Dose: 0, 6300, 12500 PPM IN FEED FOR 103 WK (STUDY DURATION: 104 WK)) “inactive; negative”; (Species: MOUSE, Strain/Sex: B6C3F1/MALE, Route: ORAL, Dose: 0, 6300, 12500 PPM IN FEED FOR 103 WK (STUDY DURATION: 104 WK), Dose: 0, 6300, 12500 PPM IN FEED FOR 103 WK (STUDY DURATION: 104 WK), Tumor Site: Type of Lesion: KIDNEY: RENAL TUBULAR CELL ADENOMA OR ADENOCARCINOMA) “equivocal”; (Species: RAT, Strain/Sex: F344/FEMALE, Route: ORAL, Dose: 0, 3100, 6300 PPM IN FEED FOR 103 WK (STUDY DURATION: 104 WK), Dose: 0, 3100, 6300 PPM IN FEED FOR 103 WK (STUDY DURATION: 104 WK)) “inactive; negative”; (Species: RAT, Strain/Sex: F344/MALE, Route: ORAL, Dose: 0, 3100, 6300 PPM IN FEED FOR 103 WK (STUDY DURATION: 104 WK), Dose: 0, 3100, 6300 PPM IN FEED FOR 103 WK (STUDY DURATION: 104 WK)) “inactive; negative”.
Regarding `O=[N+]([O-])c1cc2c3c(cccc3c1)-c1ccccc1-2`, for the setting “Species: MOUSE, Strain/Sex: B6C3F1/MALE, Route: INTRAPERITONEAL, Dose: 0, 400 NMOL IN 35 µL DMSO ON DAYS 1 (1/7 TOTAL DOSE), 8 (2/7 TOTAL DOSE), AND 15 (4/7 TOTAL DOSE) AFTER BIRTH (STUDY DUR”, the carcinogen call is “inactive; negative”.
Consider `NC(Cc1ccc(N(CCCl)CCCl)cc1)C(=O)O` (stereo not given), for which the carcinogen call (Species: RAT, Strain/Sex: SWISS/FEMALE, Route: INTRAPERITONEAL, Dose: 10 MG/KG, Tumor Site: Type of Lesion: MAMMARY GLAND: FIBROADENOMA) is “active; positive”.
With `Clc1ccc(Cl)cc1`, the carcinogen call reads like this: (Species: MOUSE, Strain/Sex: B6C3F1/FEMALE, Route: GAVAGE, Dose: 0, 300, 600 MG/KG IN CORN OIL 5 D/WK FOR 103 WK, Dose: 0, 300, 600 MG/KG IN CORN OIL 5 D/WK FOR 103 WK, Tumor Site: Type of Lesion: LIVER: HEPATOCELLULAR ADENOMA, HEPATOCELLULAR CARCINOMA) “active; positive”; (Species: MOUSE, Strain/Sex: B6C3F1/MALE, Route: GAVAGE, Dose: 0, 300, 600 MG/KG IN CORN OIL 5 D/WK FOR 103 WK, Dose: 0, 300, 600 MG/KG IN CORN OIL 5 D/WK FOR 103 WK, Tumor Site: Type of Lesion: LIVER: HEPATOCELLULAR ADENOMA, HEPATOCELLULAR CARCINOMA) “active; positive”; (Species: MOUSE, Strain/Sex: CRJ:BDF1/FEMALE, Route: INHALATION, Dose: 0, 20, 75, 300 PPM 6 HR/D, 5 D/WK FOR 2 YRS (STUDY DURATION: 2 YRS), Dose: 0, 20, 75, 300 PPM 6 HR/D, 5 D/WK FOR 2 YRS (STUDY DURATION: 2 YRS), Tumor Site: Type of Lesion: LIVER: HEPATOCELLULAR ADENOMA, LIVER: HEPATOCELLULAR CARCINOMA, LIVER: HEPATOBLASTOMA, Tumor Site: Type of Lesion: LIVER: HEPATOCELLULAR ADENOMA, LIVER: HEPATOCELLULAR CARCINOMA, LIVER: HEPATOBLASTOMA) “active; positive”; (Species: MOUSE, Strain/Sex: CRJ:BDF1/MALE, Route: INHALATION, Dose: 0, 20, 75, 300 PPM 6 HR/D, 5 D/WK FOR 2 YRS (STUDY DURATION: 2 YRS), Dose: 0, 20, 75, 300 PPM 6 HR/D, 5 D/WK FOR 2 YRS (STUDY DURATION: 2 YRS), Tumor Site: Type of Lesion: LIVER: HEPATOCELLULAR CARCINOMA, LIVER: HEPATOBLASTOMA, HISTIOCYTIC SARCOMA, Tumor Site: Type of Lesion: LIVER: HEPATOCELLULAR CARCINOMA, LIVER: HEPATOBLASTOMA, HISTIOCYTIC SARCOMA) “active; positive”; (Species: RAT, Strain/Sex: F344/FEMALE, Route: GAVAGE, Dose: 0, 300, 600 MG/KG IN CORN OIL 5 D/WK FOR 103 WK, Dose: 0, 300, 600 MG/KG IN CORN OIL 5 D/WK FOR 103 WK) “inactive; negative”; (Species: RAT, Strain/Sex: F344/MALE, FEMALE, Route: INHALATION, Dose: 0, 20, 75, 300 PPM 6 HR/D, 5 D/WK FOR 2 YRS (STUDY DURATION: 2 YRS), Dose: 0, 20, 75, 300 PPM 6 HR/D, 5 D/WK FOR 2 YRS (STUDY DURATION: 2 YRS)) “inactive; negative”. Besides, the carcinogen call (Species: RAT, Strain/Sex: F344/MALE, Route: GAVAGE, Dose: 0, 150, 300 MG/KG IN CORN OIL 5 D/WK FOR 103 WK, Dose: 0, 150, 300 MG/KG IN CORN OIL 5 D/WK FOR 103 WK, Tumor Site: Type of Lesion: KIDNEY: TUBULAR CELL ADENOCARCINOMA, TUBULAR CELL ADENOMA OR ADENOCARCINOMA) was “active; positive”.
Turning to `NC(N)=NC(N)=NCCc1ccccc1`, the carcinogen call is, setting by setting: (Species: MOUSE, Strain/Sex: B6C3F1/FEMALE, Route: ORAL, Dose: 0, 1200, 2500 PPM IN DIET, Dose: 0, 1200, 2500 PPM IN DIET) “inactive; negative”; (Species: MOUSE, Strain/Sex: B6C3F1/MALE, Route: ORAL, Dose: 0, 1200, 2500 PPM IN DIET, Dose: 0, 1200, 2500 PPM IN DIET) “inactive; negative”; (Species: RAT, Strain/Sex: F344/FEMALE, Route: ORAL, Dose: 0, 15000, 30000 PPM IN DIET, Dose: 0, 15000, 30000 PPM IN DIET) “inactive; negative”; (Species: RAT, Strain/Sex: F344/MALE, Route: ORAL, Dose: 0, 15000, 30000 PPM IN DIET, Dose: 0, 15000, 30000 PPM IN DIET) “inactive; negative”.
